Source: patent publication US7947727B2, “Compounds” (GlaxoGroupLimited, priority 2006, dated 2011)

Tested on: NFκB activity
Assay: Glucocorticoid Mediated Transrepression of NFκB Activity (A549 ELAM promoter alkaline phosphatase reporter)
Assay type: cell-based
Settings: Human A549 lung epithelial cells, 3 ng/ml human recombinant TNFα, 16 hours, read-out: pEC50, transrepression of NFκB activity (converted)
Description: Human A549 lung epithelial cells were engineered to contain a secreted placental alkaline phosphatase gene under the control of the distal region of the NFκB dependent ELAM promoter as previously described in Ray, K. P., Farrow, S., Daly, M., Talabot, F. and Searle, N. “Induction of the E-selectin promoter by interleukin 1 and tumour necrosis factor alpha, and inhibition by glucocorticoids” Biochemical Journal (1997) 328: 707-15.
Compounds were solvated and diluted in DMSO, and transferred directly into assay plates such that the final concentration of DMSO was 0.7%. Following the addition of cells (40K per well), plates were incubated for 1 hour prior to the addition of 3 ng/ml human recombinant TNFα. Following continued incubation for 16 hours, alkaline phosphatase activity was determined by measuring the change in optical density at 405 nm with time following the addition of 0.7 volumes of assay buffer (1 mg/ml p-nitrophenylphosphate dissolved in 1M diethanolamine, 0.28M NaCl, 0.5 mM MgCl2). Dose response curves were constructed from which EC50 values were estimated.

EC50, ≤ 0.01 µM:
CCN(CC(O)(CNc1cccc2c1cnn2-c1ccccc1)C(F)(F)F)C(=O)c1ccccc1F (single isomer, unassigned) [Example 3A, N-Ethyl-2-fluoro-N-(3,3,3-trifluoro-2-hydroxy-2-{[(1-phenyl-1H-indazol-4-yl)amino]methyl}propyl)benzamide]
CCN(CC(O)(CNc1cccc2c1cnn2-c1ccc(F)cc1)C(F)(F)F)C(=O)c1ccccc1C (single isomer, unassigned) [Example 6A, N-Ethyl-2-methyl-N-[3,3,3-trifluoro-2-({[1-(4-fluorophenyl)-1H-indazol-4-yl]amino}methyl)-2-hydroxypropyl]benzamide]
CCN(CC(O)(CNc1cccc2c1cnn2-c1ccc(F)cc1)C(F)(F)F)C(=O)c1ccccc1F (single isomer, unassigned) [Example 7A, N-Ethyl-2-fluoro-N-[3,3,3-trifluoro-2-({[1-(4-fluorophenyl)-1H-indazol-4-yl]amino}methyl)-2-hydroxypropyl]benzamide]
CCN(CC(O)(CNc1cccc2c1cnn2-c1ccc(F)cc1)C(F)(F)F)C(=O)c1ccccc1F (stereo not shown) [Example 7, N-Ethyl-2-fluoro-N-[3,3,3-trifluoro-2-({[1-(4-fluorophenyl)-1H-indazol-4-yl]amino}methyl)-2-hydroxypropyl]benzamide]
